These results are taken from US20210355547A1, “NON-INVASIVE URINARY BIOMARKERS FOR THE DETECTION OF UROTHELIAL CARCINOMA OF THE BLADDER” (THE JOHNS HOPKINS UNIVERSITY, priority 2018, published 2021).

Test [1] concerns spheroid CD24-sh and CD24-Ctrl BFTC 905, BFTC 909, and 5637 cells. Put plainly: Apoptosis assay (PE Annexin V / 7-AAD flow cytometry) after CDDP. Particulars: 5 μM CDDP, 72 h; spheroid cells with CD24 knockdown. The class given is cell-based. Here is the method:
(§1) FIG. 2A-2E. The chemoresistant and tumorigenic abilities attenuated by CD24 knockdown in BFTC 905, BFTC 909, and 5637 cell lines. (FIG. 2A) Cell viability after 5 μM cisplatin (CDDP) treatment for 72 h in the spheroid CD24-sh cells, as measured by MTT assay. Cell viability was expressed as the ratio of absorbance values of the spheroid CD24-sh cells related to the spheroid CD24-Ctrl cells considered as 1.0. Data are from three independent experiments. (FIG. 2B) An apoptosis assay of spheroid CD24-sh cells treated with 5 μM CDDP for 72 h. Upper, representative images of early apoptosis (bottom right quadrant) and late apoptosis (top right quadrant); Lower, percentage of apoptotic cells. (FIG. 2C) Western blotting analysis of ABCG2, YAP1, and CD133 in stable CD24-sh and CD24-Ctrl cells. (FIG. 2D) Limiting-dilution xenograft assays in stable spheroid CD24-sh BFTC 909 (upper) and BFTC 905 (lower) cells. Tumor growth was measured after subcutaneous injection of serially diluted spheroid cells (1×10^4, 1×10^3, or 1×10^2 cells per flank) into both flanks of NSG mice (five mice per group). SP, Spheroid. (FIG. 2E) Tumor initiation frequency after the xenotransplantation of spheroid CD24-sh BFTC 909 (upper) and BFTC 905 (lower) cells. […]

Test [2] has the same test system. The test can be described thus: Cell viability assay (MTT assay) after cisplatin treatment. The class given is cell-based. Particulars: 5 μM CDDP, 72 h; spheroid CD24-sh vs spheroid CD24-Ctrl cells. Here is the method: as §1, with “Spheroid.” for “Spheroid. (FIG. 2E) Tumor initiation frequency after the xenotransplantation of spheroid CD24-sh BFTC 909 (upper) and BFTC 905 (lower) cells.”
Cell viability assay (MTT assay). Cell viability was measured using the 3-(4, 5-dimethyl thiazol-2-yl)-2, 5-diphenyltetrazolium bromide (MTT) Proliferation Assay Kit (ATCC; Manassas, Va., USA) according to the manufacturer's protocol. […]
Background: Tetrazolium dyes change colour on reduction, which living cells bring about.

In the case of `N.N.[Cl][Pt][Cl]` [cisplatin], in test [1], the “anti-apoptotic ability against CDDP treatment” value is reported as “CD24 knockdown significantly attenuated the anti-apoptotic ability against CDDP treatment”. In addition, the “sensitivity of spheroid cells to CDDP treatment (cell viability)” value in test [2] was “spheroid CD24-sh cells were more sensitive to CDDP treatment than spheroid CD24-Ctrl cells”.
